In ChEMBL document CHEMBL1201862, “PubChem BioAssay data set” (2004):
Counter-ions that a name gives are not always drawn. Calls of active or inactive are those of the source.

What was measured:
HEK293 [1] = experiment: optical interference in Abeta FP readout, dose response, artefact control for IDE activator project, biochemical, fluorescence polarization (AID 588442); type: functional, cell-based; settings: Homo sapiens
Insulin-degrading enzyme [2] = target: T1, Insulin-degrading enzyme (Homo sapiens, UniProt P14735); experiment: activators of recombinant IDE enzyme, dose response, counter-screen for IDE activator project, biochemical, fluorescence polarization (AID 588681)
T1 sequence (P14735 whole entry): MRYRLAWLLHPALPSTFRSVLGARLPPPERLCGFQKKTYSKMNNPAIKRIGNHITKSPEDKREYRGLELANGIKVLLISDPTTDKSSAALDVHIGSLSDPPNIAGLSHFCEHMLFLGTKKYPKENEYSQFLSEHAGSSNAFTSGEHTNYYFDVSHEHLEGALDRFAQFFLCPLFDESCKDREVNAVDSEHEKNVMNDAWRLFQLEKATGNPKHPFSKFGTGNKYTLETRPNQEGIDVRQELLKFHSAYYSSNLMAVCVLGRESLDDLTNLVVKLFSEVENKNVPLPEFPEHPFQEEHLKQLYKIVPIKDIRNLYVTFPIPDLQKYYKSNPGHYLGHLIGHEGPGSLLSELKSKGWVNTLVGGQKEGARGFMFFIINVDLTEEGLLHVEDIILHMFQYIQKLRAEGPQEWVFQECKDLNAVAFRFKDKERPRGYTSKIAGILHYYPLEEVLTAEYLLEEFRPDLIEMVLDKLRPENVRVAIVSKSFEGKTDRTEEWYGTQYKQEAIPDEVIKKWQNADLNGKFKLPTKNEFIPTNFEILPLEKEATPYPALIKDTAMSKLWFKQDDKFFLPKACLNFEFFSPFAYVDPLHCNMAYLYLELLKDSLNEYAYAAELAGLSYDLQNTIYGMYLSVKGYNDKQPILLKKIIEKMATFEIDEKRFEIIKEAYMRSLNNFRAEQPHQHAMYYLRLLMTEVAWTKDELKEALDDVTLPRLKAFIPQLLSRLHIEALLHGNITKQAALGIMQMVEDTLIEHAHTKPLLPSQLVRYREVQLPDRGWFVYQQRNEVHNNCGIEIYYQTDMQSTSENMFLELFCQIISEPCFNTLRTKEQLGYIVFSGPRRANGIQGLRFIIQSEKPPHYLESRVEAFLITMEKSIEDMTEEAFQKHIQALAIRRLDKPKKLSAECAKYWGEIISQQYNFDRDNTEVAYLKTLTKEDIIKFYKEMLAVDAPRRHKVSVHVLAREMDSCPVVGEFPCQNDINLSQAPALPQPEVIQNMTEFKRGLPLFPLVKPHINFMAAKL

Insulin-degrading enzyme [3] = target: T1, Insulin-degrading enzyme; experiment: activators of endogenous IDE in HEK cells, dose response, cell-based, fluorescence polarization (AID 588439); type: functional
HEK293 [4] = experiment: HEK cell cytotoxicity by LDH release, dose response, cytotoxicity control for IDE activator project, fluorescence, HEK cells (AID 588440); type: functional, cell-based; settings: Homo sapiens;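 also: cytotoxicity by LDH release measuring loss of membrane integrity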
[5] = target: T2, Nuclear receptor subfamily 0 group B member 1 (Homo sapiens, UniProt P51843); experiment: Luminescence-based cell-based high throughput dose response assay for inhibitors of the orphan nuclear receptor subfamily 0, group B, member 1 (DAX1; NR0B1). [Related pubchem assays (depositor defined):AID504766, AID504790]; type: functional
T2 sequence (P51843 whole entry): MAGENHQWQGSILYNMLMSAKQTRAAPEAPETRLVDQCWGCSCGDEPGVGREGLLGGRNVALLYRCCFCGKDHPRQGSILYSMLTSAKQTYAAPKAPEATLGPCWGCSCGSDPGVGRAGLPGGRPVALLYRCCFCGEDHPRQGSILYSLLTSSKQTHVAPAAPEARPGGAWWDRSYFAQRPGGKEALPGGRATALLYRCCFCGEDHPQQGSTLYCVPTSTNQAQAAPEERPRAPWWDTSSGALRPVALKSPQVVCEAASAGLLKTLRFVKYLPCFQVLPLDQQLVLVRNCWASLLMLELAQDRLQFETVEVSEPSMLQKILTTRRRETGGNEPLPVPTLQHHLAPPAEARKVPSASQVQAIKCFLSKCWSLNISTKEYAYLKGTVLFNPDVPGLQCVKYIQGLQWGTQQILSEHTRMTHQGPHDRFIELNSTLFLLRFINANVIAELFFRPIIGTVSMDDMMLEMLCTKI

HEK293 [6] = experiment: cells; type: functional, cell-based; settings: Homo sapiens
[7] = target: T3, DNA repair and recombination protein RAD54-like (Homo sapiens, UniProt Q92698); experiment: inhibitors of human RAD54 branch migration, confirmation, biochemical, fluorescence, cherry-picked samples, dose series (AID 651657); type: functional
T3 sequence (Q92698 whole entry): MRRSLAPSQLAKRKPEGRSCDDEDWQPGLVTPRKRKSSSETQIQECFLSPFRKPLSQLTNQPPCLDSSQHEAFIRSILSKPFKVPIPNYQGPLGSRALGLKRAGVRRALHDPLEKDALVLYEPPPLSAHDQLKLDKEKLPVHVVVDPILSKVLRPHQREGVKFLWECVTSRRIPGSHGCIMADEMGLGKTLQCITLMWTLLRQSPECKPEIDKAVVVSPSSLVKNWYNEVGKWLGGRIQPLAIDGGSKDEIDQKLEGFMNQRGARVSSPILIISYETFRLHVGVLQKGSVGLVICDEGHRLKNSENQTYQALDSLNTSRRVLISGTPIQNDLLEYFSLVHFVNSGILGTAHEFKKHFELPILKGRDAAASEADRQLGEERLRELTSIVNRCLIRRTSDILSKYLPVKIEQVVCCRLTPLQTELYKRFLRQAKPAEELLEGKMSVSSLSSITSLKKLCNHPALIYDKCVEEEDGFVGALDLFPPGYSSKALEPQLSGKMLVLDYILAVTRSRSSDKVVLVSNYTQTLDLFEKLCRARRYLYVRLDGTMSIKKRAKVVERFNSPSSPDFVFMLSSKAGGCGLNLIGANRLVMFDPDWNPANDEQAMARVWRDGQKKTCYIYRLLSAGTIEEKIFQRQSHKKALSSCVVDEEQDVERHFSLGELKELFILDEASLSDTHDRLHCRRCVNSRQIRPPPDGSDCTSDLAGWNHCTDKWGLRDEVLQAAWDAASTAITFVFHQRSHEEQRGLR

[8] = inhibitors of intracellular T. cruzi replication, confirmation, NIH3T3 host cells, beta-gal luminescence (AID 2044); type: functional, cell-based;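 also: intracellular parasites grown in NIH/3T3 mouse fibroblasts as host cells; luminescent beta-galactosidase reporter signal from transgenic T. cruzi replicating inside host cells; inhibitors lower the luminescence signal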
Streptococcus = experiment: Group A Streptococcus viability loss, dose response, counter-screen for streptokinase expression inhibitor project, luminescence, BacTiterGlo (AID 1915); type: functional, organism-based;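 also: potency for reduction of bacterial viability or growth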
[9] = cytotoxicity toward NIH3T3 fibroblasts, dose response, counter-screen, cell-based, ATP luminescence, mouse fibroblasts (AID 2010); type: functional;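 also: cells exposed to compound for about 90 hours before reading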
INS1 = experiment: beta cell apoptosis inhibitors, cytokine rescue, dose response, luminescence, retest (AID 449756); type: functional, cell-based; settings: Rattus norvegicus;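 also: cell death triggered by IL-1 beta plus TNF-alpha plus IFN-gamma mixture; protective hits raise ATP signal compared with cytokine alone wells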
[10] = target: Type-1 angiotensin II receptor (Homo sapiens, UniProt P30556); experiment: AT1 receptor antagonists, dose response, selectivity assay for APJ receptor antagonist project, cell-based, uHTS hits (AID 463214); type: functional;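 also: antagonist potency against angiotensin II stimulated AT1 response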
Beta-galactosidase = Beta-galactosidase (Escherichia coli, UniProt Q8VNN2); experiment: PubChem AID 485352; type: functional
[11] = test system: Streptococcus sp. 'group A'; experiment: growth inhibition of control SK(-) GAS strain, dose response, counter-screen for streptokinase expression inhibitor project, luminescence, kanamycin, BacTiterGlo, confirmation (AID 1900); type: functional, organism-based
[12] = target: Voltage-gated inwardly rectifying potassium channel KCNH2 (Homo sapiens, UniProt Q12809); settings: Potency;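 also: confirmatory quantitative high-throughput screen measuring inhibition of hERG channel activity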
[13] = target: Peroxisome proliferator-activated receptor gamma/Nuclear receptor coactivator 1 (Homo sapiens, UniProt P37231); type: functional;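 also: agonist potency as compounds enhance coactivator SRC-1 recruitment to PPARgamma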
[14] = growth suppression of beta-catenin-knockout colon cells, dose response, cell-based, HCT116, human colon tumor (AID 1045); type: functional;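 also: HCT116 colon tumor cells with beta catenin knocked out; cells exposed to compound for 60 hours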
[15] = growth suppression of PTEN-null colon cells, dose response, cell-based, HCT116 PTEN knockout (AID 1047); type: functional;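 also: HCT116 colon tumor cells with PTEN knocked out; cells exposed to compound for 60 hours before readout; potency for loss of cell viability measured by luminescence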
[16] = target: Peroxisome proliferator-activated receptor gamma/Nuclear receptor coactivator 2 (Homo sapiens, UniProt P37231); type: functional;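 also: agonist potency for raising coactivator recruitment to the receptor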
[17] = target: Peroxisome proliferator-activated receptor gamma/Nuclear receptor coactivator 3 (Homo sapiens, UniProt P37231); type: functional;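 also: agonist potency for raising coactivator recruitment to the receptor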
SUMO-activating enzyme = SUMO-activating enzyme (Homo sapiens, UniProt Q9UBT2); experiment: SUMOylation inhibitor hit validation, confirmation, SUMOylation inhibitor project, biochemical, AlphaScreen (AID 2018); type: functional
[18] = target: Beta-2 adrenergic receptor (Homo sapiens, UniProt P07550); experiment: beta2AR agonists driving receptor internalization, dose response, cell-based, FAP fluorogen, flow cytometry, cherry pick 1 (AID 588763); type: functional
cells [19] = type: functional, cell-based
cells [20] = type: functional, cell-based; remark: listed apart in the source
[21] = target: T4, Microphthalmia-associated transcription factor (Homo sapiens, UniProt O75030); experiment: TRPM1 promoter luciferase signal decrease, dose response, MITF inhibitor project, cell-based, SK-MEL-5, cherry-picked, set 3 (AID 493073); type: functional
T4 sequence (O75030 whole entry): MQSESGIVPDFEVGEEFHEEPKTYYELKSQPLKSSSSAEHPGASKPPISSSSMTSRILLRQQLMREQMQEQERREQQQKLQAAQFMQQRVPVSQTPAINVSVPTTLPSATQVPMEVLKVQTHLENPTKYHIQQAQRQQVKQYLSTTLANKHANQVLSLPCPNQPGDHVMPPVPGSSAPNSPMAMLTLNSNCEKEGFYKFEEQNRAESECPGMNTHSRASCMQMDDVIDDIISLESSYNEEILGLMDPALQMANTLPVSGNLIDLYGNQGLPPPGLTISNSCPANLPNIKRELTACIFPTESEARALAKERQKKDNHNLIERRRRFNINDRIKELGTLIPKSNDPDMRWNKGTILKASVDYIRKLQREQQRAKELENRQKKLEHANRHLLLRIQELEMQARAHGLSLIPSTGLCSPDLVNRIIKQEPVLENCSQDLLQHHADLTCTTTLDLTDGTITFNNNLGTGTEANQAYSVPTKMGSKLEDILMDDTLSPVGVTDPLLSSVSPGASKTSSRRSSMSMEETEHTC

Chain of Type-1 angiotensin II receptor (P30556 whole entry): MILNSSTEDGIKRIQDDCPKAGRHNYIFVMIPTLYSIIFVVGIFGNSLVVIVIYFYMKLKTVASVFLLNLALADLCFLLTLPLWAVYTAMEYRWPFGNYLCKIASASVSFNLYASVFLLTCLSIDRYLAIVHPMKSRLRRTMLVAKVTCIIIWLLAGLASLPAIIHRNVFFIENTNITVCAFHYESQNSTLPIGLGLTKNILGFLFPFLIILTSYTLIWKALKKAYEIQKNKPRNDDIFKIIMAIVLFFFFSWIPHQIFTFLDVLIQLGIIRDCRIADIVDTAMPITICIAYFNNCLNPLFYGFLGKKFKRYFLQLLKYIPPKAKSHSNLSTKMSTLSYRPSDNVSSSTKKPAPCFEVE
Chain of Beta-galactosidase (Q8VNN2 whole entry): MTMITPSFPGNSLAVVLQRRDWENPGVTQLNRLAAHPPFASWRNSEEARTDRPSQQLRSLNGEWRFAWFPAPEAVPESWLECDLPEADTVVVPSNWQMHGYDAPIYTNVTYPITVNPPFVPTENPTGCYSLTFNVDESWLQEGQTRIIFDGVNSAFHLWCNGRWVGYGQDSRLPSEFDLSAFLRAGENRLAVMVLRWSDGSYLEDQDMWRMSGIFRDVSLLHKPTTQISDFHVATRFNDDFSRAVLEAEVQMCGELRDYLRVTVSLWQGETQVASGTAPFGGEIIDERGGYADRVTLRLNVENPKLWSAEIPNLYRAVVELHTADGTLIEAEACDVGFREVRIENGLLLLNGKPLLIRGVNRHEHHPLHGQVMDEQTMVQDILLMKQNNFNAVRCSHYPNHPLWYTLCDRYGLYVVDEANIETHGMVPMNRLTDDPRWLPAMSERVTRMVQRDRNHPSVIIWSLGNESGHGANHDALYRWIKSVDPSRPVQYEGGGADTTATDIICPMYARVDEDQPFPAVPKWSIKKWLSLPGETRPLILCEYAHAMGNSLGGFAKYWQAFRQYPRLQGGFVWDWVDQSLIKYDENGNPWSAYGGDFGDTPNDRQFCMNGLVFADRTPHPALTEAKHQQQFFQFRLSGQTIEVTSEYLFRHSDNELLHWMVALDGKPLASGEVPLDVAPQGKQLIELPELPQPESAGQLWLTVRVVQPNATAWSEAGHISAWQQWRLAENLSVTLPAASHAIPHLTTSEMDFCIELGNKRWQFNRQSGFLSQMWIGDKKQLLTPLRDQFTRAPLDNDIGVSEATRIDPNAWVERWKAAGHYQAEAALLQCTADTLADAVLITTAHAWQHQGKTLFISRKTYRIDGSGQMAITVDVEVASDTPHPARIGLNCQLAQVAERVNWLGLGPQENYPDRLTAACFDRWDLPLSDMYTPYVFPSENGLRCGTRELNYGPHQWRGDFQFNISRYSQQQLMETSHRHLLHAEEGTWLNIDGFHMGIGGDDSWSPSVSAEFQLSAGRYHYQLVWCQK
Chain of Voltage-gated inwardly rectifying potassium channel KCNH2 (Q12809 whole entry): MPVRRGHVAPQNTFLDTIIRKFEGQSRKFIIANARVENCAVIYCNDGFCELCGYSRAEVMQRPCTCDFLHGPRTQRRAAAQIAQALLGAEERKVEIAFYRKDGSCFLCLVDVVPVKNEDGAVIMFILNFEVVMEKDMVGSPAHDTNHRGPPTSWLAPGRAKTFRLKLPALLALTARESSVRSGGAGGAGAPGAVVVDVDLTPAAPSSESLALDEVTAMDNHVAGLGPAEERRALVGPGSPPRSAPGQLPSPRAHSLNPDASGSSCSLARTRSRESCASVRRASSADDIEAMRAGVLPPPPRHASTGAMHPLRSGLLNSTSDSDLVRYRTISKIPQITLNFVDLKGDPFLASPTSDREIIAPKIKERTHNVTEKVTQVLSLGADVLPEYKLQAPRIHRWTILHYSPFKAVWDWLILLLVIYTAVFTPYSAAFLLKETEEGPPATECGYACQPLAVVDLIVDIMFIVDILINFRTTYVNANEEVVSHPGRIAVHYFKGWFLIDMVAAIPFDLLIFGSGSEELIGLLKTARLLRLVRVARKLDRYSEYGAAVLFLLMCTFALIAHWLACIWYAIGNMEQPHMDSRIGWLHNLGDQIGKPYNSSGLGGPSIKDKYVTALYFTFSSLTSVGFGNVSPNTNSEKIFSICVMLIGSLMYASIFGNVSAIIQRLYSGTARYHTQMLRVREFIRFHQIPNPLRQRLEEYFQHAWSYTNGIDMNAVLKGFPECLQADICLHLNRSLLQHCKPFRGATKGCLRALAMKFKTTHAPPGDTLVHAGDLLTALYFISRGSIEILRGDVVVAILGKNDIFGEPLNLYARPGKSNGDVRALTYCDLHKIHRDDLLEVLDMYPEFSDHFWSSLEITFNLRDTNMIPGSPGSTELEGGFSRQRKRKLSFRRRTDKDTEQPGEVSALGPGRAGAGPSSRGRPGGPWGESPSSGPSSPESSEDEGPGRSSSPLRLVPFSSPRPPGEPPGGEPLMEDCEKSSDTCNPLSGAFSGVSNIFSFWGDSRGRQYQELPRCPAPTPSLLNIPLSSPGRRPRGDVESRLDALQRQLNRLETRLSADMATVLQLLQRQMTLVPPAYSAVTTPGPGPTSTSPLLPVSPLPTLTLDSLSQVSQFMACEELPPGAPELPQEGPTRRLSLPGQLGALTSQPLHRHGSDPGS
Chain of SUMO-activating enzyme (Q9UBE0 whole entry): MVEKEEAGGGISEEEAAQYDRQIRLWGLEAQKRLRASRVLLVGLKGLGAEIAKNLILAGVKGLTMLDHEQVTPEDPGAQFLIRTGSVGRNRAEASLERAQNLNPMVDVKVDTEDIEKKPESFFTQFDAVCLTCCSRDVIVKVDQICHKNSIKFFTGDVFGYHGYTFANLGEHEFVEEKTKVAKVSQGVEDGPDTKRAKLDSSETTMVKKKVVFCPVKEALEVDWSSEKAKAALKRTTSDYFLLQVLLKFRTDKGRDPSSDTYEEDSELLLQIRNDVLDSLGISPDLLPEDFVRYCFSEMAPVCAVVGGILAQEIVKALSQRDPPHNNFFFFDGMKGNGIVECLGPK
Chain of SUMO-activating enzyme (Q9UBT2 whole entry): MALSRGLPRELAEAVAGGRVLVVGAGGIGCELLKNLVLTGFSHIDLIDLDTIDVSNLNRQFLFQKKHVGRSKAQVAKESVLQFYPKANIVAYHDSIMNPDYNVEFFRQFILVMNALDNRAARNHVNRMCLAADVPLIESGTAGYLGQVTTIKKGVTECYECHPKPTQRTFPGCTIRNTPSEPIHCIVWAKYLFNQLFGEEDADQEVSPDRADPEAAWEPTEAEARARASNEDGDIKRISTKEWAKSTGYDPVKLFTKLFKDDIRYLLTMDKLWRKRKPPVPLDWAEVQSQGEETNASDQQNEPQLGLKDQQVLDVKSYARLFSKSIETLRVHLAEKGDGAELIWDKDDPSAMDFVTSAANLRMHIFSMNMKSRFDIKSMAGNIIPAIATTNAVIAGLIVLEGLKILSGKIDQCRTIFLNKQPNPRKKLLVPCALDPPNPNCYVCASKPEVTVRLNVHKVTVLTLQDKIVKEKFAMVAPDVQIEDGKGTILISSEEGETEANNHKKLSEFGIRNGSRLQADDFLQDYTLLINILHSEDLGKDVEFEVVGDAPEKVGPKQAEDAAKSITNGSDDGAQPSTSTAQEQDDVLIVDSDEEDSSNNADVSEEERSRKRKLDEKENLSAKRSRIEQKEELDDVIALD
Chain of Beta-2 adrenergic receptor (P07550 whole entry): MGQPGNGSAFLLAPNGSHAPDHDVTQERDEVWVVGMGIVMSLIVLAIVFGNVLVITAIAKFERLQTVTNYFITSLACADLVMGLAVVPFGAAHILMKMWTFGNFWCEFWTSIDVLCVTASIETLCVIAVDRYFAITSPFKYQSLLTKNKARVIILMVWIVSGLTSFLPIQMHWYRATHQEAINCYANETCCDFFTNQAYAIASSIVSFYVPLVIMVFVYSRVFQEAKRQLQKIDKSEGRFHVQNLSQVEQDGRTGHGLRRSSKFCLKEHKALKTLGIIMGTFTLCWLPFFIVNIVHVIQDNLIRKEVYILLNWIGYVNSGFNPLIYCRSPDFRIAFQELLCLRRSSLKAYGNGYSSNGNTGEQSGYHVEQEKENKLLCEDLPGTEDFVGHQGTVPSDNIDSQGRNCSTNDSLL

With `Cc1ccc(Cn2nc(C)c(C(=O)N3CCN(S(=O)(=O)/C=C/c4ccccc4)CC3)c2C)cc1` the EC50 (HEK293 [1]) was > 54.7 µM (inactive), the EC50 (Insulin-degrading enzyme [2]) was > 54.7 µM (inactive) and the EC50 (Insulin-degrading enzyme [3]) was > 54.7 µM (inactive). The IC50 (HEK293 [4]) was > 89.2 µM (inactive).
For `O=C(Nc1nc(-c2ccccc2)ns1)c1ccncc1`, the IC50 [5] was > 67.5 µM (inactive) and the IC50 (HEK293 [6]) was > 67.5 µM (inactive).
With `CCCN(CCC)c1nc(-c2ccccn2)nc2ccccc12` the AC50 [7] was 13.3 µM (active), the EC50 [8] was 0.374 µM (active) and the EC50 (Streptococcus) was 1.85 µM (active). The EC50 [9] was 1.76 µM (active), the AC50 (INS1) was 1.77 µM (active) and the IC50 [10] was 23.9 µM (not active). For the same compound, the EC50 (Beta-galactosidase) was > 40 µM (inactive) and the EC50 [11] was 1.02 µM (active).
With `CNCCCC1c2ccccc2C=Cc2ccccc21` [PROTRIPTYLINE HYDROCHLORIDE] the AC50 [12] was 31.6 µM (inconclusive).
In the case of `O=C(Nc1ccc2oc(-c3ccc4ccccc4c3)nc2c1)c1ccc2c(c1)OCCO2`, the EC50 [13] was 27.1 µM (not active), the EC50 [14] was 18.4 µM (active) and the EC50 [15] was 12.4 µM (active). For the same compound, the EC50 [16] was 22.1 µM (not active), the EC50 [17] was 37.1 µM (not active) and the IC50 (SUMO-activating enzyme) was 38.9 µM (active). The EC50 [18] was 5.58 µM (active).
With `COc1cc(C(=O)N/N=C(\c2ccccc2)c2ccccn2)cc(OC)c1OC` the EC50 (cells [19]) was > 350 µM (not active), the EC50 (cells [20]) was 10.3 µM (active) and the EC50 [8] was 0.473 µM (active). The EC50 [9] was 0.75 µM (active), the AC50 (INS1) was 0.499 µM (active) and the IC50 [10] was > 40 µM (not active). The EC50 (Beta-galactosidase) was > 40 µM (inactive) and the AC50 [21] was 13.8 µM (active).
